Source: patent US12630565B2, “DNA-dependent protein kinase inhibitor” (DIZAL (JIANGSU) PHARMACEUTICAL CO., LTD., priority 2019, dated 2026)
pIC50: −log10 of the molar value.

Legend:
[1] = tested on: MDR1, BCRP; assay: MDCKII-MDR1-BCRP efflux assay; format: in vitro ADME; details: dog, pH 7.4, 5 μM compound, HBSS pH 7.4, read-out: MDCK-Mdr1-BCRP efflux ratio
Summary of the method: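 Bidirectional (A-B, B-A) transport of 5 μM compound across MDCKII-MDR1-BCRP monolayers in HBSS, 25 mM HEPES pH 7.4, ~37° C. for 120 min, triplicate; donor and receiver concentrations measured, monolayer integrity checked with Lucifer yellow. Papp and efflux ratio calculated.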

[2] = Metabolic stability assay (human microsomal Clint); format: in vitro ADME; details: human, pooled human liver microsomes, pH 7.4, 1 μM compound, 1 mg/mL microsomes, 1 mM NADPH, 37° C.
Summary of the method: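 Compound (1 μM) incubated at 37 °C with pooled human liver microsomes (1 mg/mL) and 1 mM NADPH in 100 mM phosphate, pH 7.4. Samples quenched in acetonitrile at 0–30 min and analysed by LC-MS/MS for parent loss. CLint reported in μl/min/mg.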

[3] = tested on: Rat hepatocyte; assay: Metabolic stability assay (rat hepatocyte Clint); format: in vitro ADME; details: 1 μM compound, cryopreserved hepatocytes 1 million cells per mL
Summary of the method: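 Compound at 1 μM incubated with cryopreserved rat hepatocytes, 1 million cells/mL, sampled 0–120 min with acetonitrile quench and LC-MS/MS quantitation. CLint (μL/min/E6) derived from elimination rate constant and half-life of parent disappearance, scaled by cell concentration.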

[4] = target: Full length human DNAPK protein (Homo sapiens, UniProt P78527); assay: DNA-PK enzymatic assay (TR-FRET); format: biochemical; details: 10 μM ATP, 1.6 μM peptide substrate

efflux ratio at 120 min, 5 μM [1]	microsomal CLint at 1 μM [2] [µL/min/mg]	Rat hepatocyte CLint (μl/min/10^−6 cells) [3] [μl/min/10^−6 cells]	pIC50 [4]	SMILES
1.5	216	65.5	8.85	Cc1cc2ncnn2cc1Nc1ncc2c(C)nn(C3CC4(C3)CC(F)(F)C4)c2n1 [Example 41, 1-(6,6-difluorospiro[3.3]heptan-2-yl)-3-methyl-N-(7-methyl-[1,2,4]triazolo[1,5-a]pyridin-6-yl)-1H-pyrazolo[3,4-d]pyrimidin-6-amine]
4.8	19.5	34.2	8.12	Cc1cc2ncnn2cc1Nc1ncc2c(C)nn(C3CC4(COC4)C3)c2n1 [Example 42, 3-methyl-N-(7-methyl-[1,2,4]triazolo[1,5-a]pyridin-6-yl)-1-(2-oxaspiro[3.3]heptan-6-yl)-1H-pyrazolo[3,4-d]pyrimidin-6-amine]
4.3	8.8	1.9	7.62	Cc1cc2ncnn2cc1Nc1ncc2c(C)nn(C3COC3)c2n1 [Example 44, 3-methyl-N-(7-methyl-[1,2,4]triazolo[1,5-a]pyridin-6-yl)-1-(oxetan-3-yl)-1H-pyrazolo[3,4-d]pyrimidin-6-amine]
1.6	20.9	4.2	7.91	Cc1cc2ncnn2cc1Nc1ncc2c(C)nn(CC(F)F)c2n1 [Example 57, 1-(2,2-difluoroethyl)-3-methyl-N-(7-methyl-[1,2,4]triazolo[1,5-a]pyridin-6-yl)-1H-pyrazolo[3,4-d]pyrimidin-6-amine]
1.9	70.8	32.9	8.66	Cc1cc2ncnn2cc1Nc1ncc2c(C)nn(CCCC(F)(F)F)c2n1 [Example 58, 3-methyl-N-(7-methyl-[1,2,4]triazolo[1,5-a]pyridin-6-yl)-1-(4,4,4-trifluorobutyl)-1H-pyrazolo[3,4-d]pyrimidin-6-amine]
0.7	20.2	5.5	8.35	Cc1cc2ncnn2cc1Nc1ncc2c(C)nn(C(C)C)c2n1 [Example 59, 1-isopropyl-3-methyl-N-(7-methyl-[1,2,4]triazolo[1,5-a]pyridin-6-yl)-1H-pyrazolo[3,4-d]pyrimidin-6-amine]
0.7	20.4	22.7	7.87	Cc1cc2nccn2cc1Nc1ncc2c(C)nn(C(C)C)c2n1 [Example 60, 1-isopropyl-3-methyl-N-(7-methylimidazo[1,2-a]pyridin-6-yl)-1H-pyrazolo[3,4-d]pyrimidin-6-amine]
2.4	5.5	5.3	7.44	COCCn1nc(C)c2cnc(Nc3cn4ncnc4cc3C)nc21 [Example 63, 1-(2-methoxyethyl)-3-methyl-N-(7-methyl-[1,2,4]triazolo[1,5-a]pyridin-6-yl)-1H-pyrazolo[3,4-d]pyrimidin-6-amine]
2	17.1	13.3	8.10	COCCCn1nc(C)c2cnc(Nc3cn4ncnc4cc3C)nc21 [Example 65, 1-(3-methoxypropyl)-3-methyl-N-(7-methyl-[1,2,4]triazolo[1,5-a]pyridin-6-yl)-1H-pyrazolo[3,4-d]pyrimidin-6-amine]
1.9	120	15.3	8.70	Cc1cc2ncnn2cc1Nc1ncc2c(C)nn(CCCOC(F)(F)F)c2n1 [Example 66, 3-methyl-N-(7-methyl-[1,2,4]triazolo[1,5-a]pyridin-6-yl)-1-(3-(trifluoromethoxy)propyl)-1H-pyrazolo[3,4-d]pyrimidin-6-amine]
